From patent publication US20260184675A1, “CHIRAL ISOMERIC SULFITE COMPOUND AND APPLICATION THEREOF” (Chengdu Hanova BioSciences Co., Ltd, priority 2024, published 2026)

Assays:
Assay type in all cases: in vivo
[1] = tested on: eggs of Harmonia axyridis; assay: Effect on hatching of eggs of Harmonia axyridis, egg card immersion; settings: 100 ppm; for Number of hatched larvae 4 days after insecticide delivery, Replicate 1 / Number of hatched larvae 4 days after insecticide delivery, Replicate 2 / Number of hatched larvae 4 days after insecticide delivery, Replicate 3: Harmonia axyridis egg cards, immersed 30 seconds; for Hatching rate (%), Replicate 1 / Hatching rate (%), Replicate 2 / Hatching rate (%), Replicate 3: Harmonia axyridis eggs, 4 days after delivery
From the text: The eggs of Harmonia axyridis cards (with approximately 20 eggs per card) were purchased from Henan Jiyuan Baiyun Industry Co., Ltd. in Henan Province. The number of eggs on the egg cards was counted as the basic number before insecticide delivery, and 5 cards were used as one treatment, with 3 replicates per treatment. After immersing the egg cards in a 100 ppm insecticide solution for 30 seconds, they were taken out and air dried, then cultivated under moisturizing conditions, and the […] were cultivated at 27° C. 4 days after insecticide delivery, the hatching status of eggs of Harmonia axyridis was investigated, and the prevention and control effect was calculated according to the following formula. [formula] [formula]

eggs of Thrips = assay: Effect on hatching of eggs of Thrips, leaf disc method; settings: 100 ppm; for Hatching rate (%): 5 days after insecticide delivery
Procedure: (§1) • (1) Preparation of leaf discs containing eggs: 20 female adult mites of Tetranychus cinnabarinus were transferred onto leaf discs of Vicia faba with a diameter of 2.0 cm (with wetted filter paper at the bottom), then covered it with a lidded culture dish and cultivated under moisturizing conditions, the adult mites were removed within 36 hours and microscopic examination and counting were performed on leaf discs containing eggs. • (2) Investigation of egg population base: Before pesticide soaking, a microscopic examination was conducted on the egg basic number of each leaf disc, with 2 replicates set for each treatment. • (3) Pesticide soaking treatment: The leaf butterflies loaded with mite eggs were soaked in clear water and sulfite compounds for 10 seconds, respectively, then taken out and cultivated under moisturizing conditions. Each treatment should be repeated for no less than 3 times. • (4) Cultivation and observation: The […] were cultivated under normal conditions. Five days after insecticide delivery, the hatching status of mite eggs was investigated. • Note: The temperature and humidity conditions of the constant temperature and humidity incubator after the treatment should be controlled so as to avoid excessive temperature differences, which may cause generation and dripping of condensate water in the culture dish, resulting in abnormal death of eggs due to soaking in water; it is also necessary to ensure sufficient strong ambient light, without directing irradiating the leaves. • (5) Survey of Results: The experimental materials of each treatment group were regularly hydrated and moisturized, and the hatching of eggs was observed. On the 7th day after insecticide delivery, the number of hatched eggs for each treatment was recorded, and the survey of results was recorded in the original notebook. According to the experimental requirements and characteristics of agents, the survey time can be shortened or extended.
(§2) • 1) Surveying and recording the number of hatched eggs for each treatment. • 2) Photographing and recording whether there was any pesticide damage to the leaf discs of Vicia faba. • 3) Recording the developmental status of experimental mite eggs, behavior status of nymph mites, including abnormal phenomena such as delayed or stopped development of mite eggs, difficulty in breaking hull for nymph mites, or painful struggles after hatching, etc. • (6) Calculation method: Based on the survey data, the prevention and control effect of each treatment was calculated according to the following formula, and the calculation results were kept to two decimal places.
(§3) This test adopted the method in Test Example 1 of technical section, mainly used leaf disc method to explore the inhibitory effect on hatching of eggs of Thrips by 1-(S,S), 1-(S,R), 1-(R,R), 1-(R,S), 1′-(S,S), 1′-(S,R), 1′-(R,R), 1′-(R,S), compound 1, compound 1′, S-10, R-10, S-10′, R-10′, compound 10, compound 10′, compound 19-(S,S), 19-(S,R), 19-(R,R), 19-(R,S), 19′-(S,S), 19′-(S,R), 19′-(R,R), 19′-(R,S), compound 19, and compound 19′. The concentration of all compounds was 100 ppm.

[2] = tested on: eggs of Tetranychus urticae; assay: Effect on hatching of eggs of Tetranychus urticae, leaf disc method; settings: 5 ppm; for Hatching rate (%): 5 days after insecticide delivery
Procedure: as §1, §2
as §3, with “Tetranychus urticae” for “Thrips”, “by compounds” for “by”, “5” for “100”

eggs of Aleyrodidae = assay: Effect on hatching of eggs of Aleyrodidae, leaf disc method; settings: 10 ppm; for Hatching rate (%), Replicate 1 / Hatching rate (%), Replicate 2 / Hatching rate (%), Replicate 3 / Number of hatched larvae 5 days after insecticide delivery, Replicate 1 / Number of hatched larvae 5 days after insecticide delivery, Replicate 2 / Number of hatched larvae 5 days after insecticide delivery, Replicate 3: Aleyrodidae eggs; for Hatching rate (%), Replicate 1 / Hatching rate (%), Replicate 2 / Hatching rate (%), Replicate 3: 5 days after delivery; for Number of hatched larvae 5 days after insecticide delivery, Replicate 1 / Number of hatched larvae 5 days after insecticide delivery, Replicate 2 / Number of hatched larvae 5 days after insecticide delivery, Replicate 3: leaf disc
Procedure: as §1, §2
as §3, with “Aleyrodidae” for “Thrips”, “by compounds” for “by”, “10” for “100”

[3] = Replicate 1, listed as 1-(S, S)
[4] = Replicate 2, listed as 1-(S, S)
[5] = Replicate 3, listed as 1-(S, S)
[6] = Replicate 1, listed as 1′-(R, R)
[7] = Replicate 2, listed as 1′-(R, R)
[8] = Replicate 3, listed as 1′-(R, R)

## C[C@@H](COS(=O)OCCF)Oc1ccc(Cl)cc1Cl (stereo partly drawn) [1-(S,S)]
[1]
  inhibitory activity on the hatching of eggs of Harmonia axyridis (in words): strong inhibitory activities
[1]; listed as 1-(S, S)
  Number of hatched larvae 4 days after insecticide delivery, Replicate 1: 0
  Number of hatched larvae 4 days after insecticide delivery, Replicate 2: 0
  Number of hatched larvae 4 days after insecticide delivery, Replicate 3: 0
  Hatching rate (%), Replicate 1: 0.00%
  Hatching rate (%), Replicate 2: 0.00%
  Hatching rate (%), Replicate 3: 0.00%
Eggs of Thrips
  inhibitory activity on the hatching of eggs of Thrips (in words): strong inhibitory activities
Eggs of Thrips; [3]
  Hatching rate (%): 0.00%
  Number of hatched larvae 5 days after insecticide delivery: 0
Eggs of Thrips; [4]
  Hatching rate (%): 0.00%
  Number of hatched larvae 5 days after insecticide delivery: 0
Eggs of Thrips; [5]
  Hatching rate (%): 0.00%
  Number of hatched larvae 5 days after insecticide delivery: 0
[2]
  inhibitory activity on the hatching of eggs of Tetranychus urticae (in words): strong inhibitory activities
[2]; [3]
  Hatching rate (%): 0.00%
  Number of hatched larvae 5 days after insecticide delivery: 0
[2]; [4]
  Hatching rate (%): 0.00%
  Number of hatched larvae 5 days after insecticide delivery: 0
Eggs of Aleyrodidae
  inhibitory activity on the hatching of eggs of Aleyrodidae (in words): strong inhibitory activities
Eggs of Aleyrodidae; listed as 1-(S, S)
  Hatching rate (%), Replicate 1: 0.00%
  Hatching rate (%), Replicate 2: 0.00%
  Hatching rate (%), Replicate 3: 0.00%
  Number of hatched larvae 5 days after insecticide delivery, Replicate 1: 0
  Number of hatched larvae 5 days after insecticide delivery, Replicate 2: 0
  Number of hatched larvae 5 days after insecticide delivery, Replicate 3: 0

## CC(COc1ccc(Cl)cc1Cl)OS(=O)OCCF [1′-(R,R)]
[1]; listed as 1′-(R, R)
  Number of hatched larvae 4 days after insecticide delivery, Replicate 1: 15
  Number of hatched larvae 4 days after insecticide delivery, Replicate 2: 16
  Number of hatched larvae 4 days after insecticide delivery, Replicate 3: 18
  Hatching rate (%), Replicate 1: 17.05%
  Hatching rate (%), Replicate 2: 16.84%
  Hatching rate (%), Replicate 3: 16.22%
Eggs of Thrips; [6]
  Hatching rate (%): 12.68%
  Number of hatched larvae 5 days after insecticide delivery: 18
Eggs of Thrips; [7]
  Hatching rate (%): 12.79%
  Number of hatched larvae 5 days after insecticide delivery: 11
Eggs of Thrips; [8]
  Hatching rate (%): 14.29%
  Number of hatched larvae 5 days after insecticide delivery: 15
[2]; [6]
  Hatching rate (%): 17.91%
  Number of hatched larvae 5 days after insecticide delivery: 12
[2]; [7]
  Hatching rate (%): 19.28%
  Number of hatched larvae 5 days after insecticide delivery: 16
Eggs of Aleyrodidae; listed as 1′-(R, R)
  Hatching rate (%), Replicate 1: 13.95%
  Hatching rate (%), Replicate 2: 15.38%
  Hatching rate (%), Replicate 3: 13.21%
  Number of hatched larvae 5 days after insecticide delivery, Replicate 1: 18
  Number of hatched larvae 5 days after insecticide delivery, Replicate 2: 14
  Number of hatched larvae 5 days after insecticide delivery, Replicate 3: 14
